pIC50: −log10 of the molar value.
Legend:
[1] = tested on: NFκB; test: NF-κB luciferase reporter transactivation assay; type: cell-based; settings: read-out: inhibition of NFκB binding to the reporter construct, IC50
Experimental: Reporter assays were performed as previously described (Georgiadis et al., 2008; Kelley et al., 2011; Cardoso et al., 2012b; Luo et al., 2012). Cells were transfected with NF-κB-Luciferase construct containing an NF-κB-response promoter and driving the expression of a luciferase gene and a Renilla luciferase control reporter vector pRL-CMV. After a 24-hour transfection period, cells were lysed, and Firefly and Renilla luciferase activities were assayed using Renilla luciferase activity for normalization. All of the transfection experiments were performed in triplicate and repeated at least three times in independent experiments. Data are expressed as mean±standard error from a representative experiment, and Student's t tests were performed.

[2] = Pharmacokinetics (PK); settings: in vivo
Experimental: (§1) PK studies were performed in the IU Simon Cancer Center Clinical Pharmacology Analytical Core (CPAC), as previously described for E3330 (Fishel et al., 2011) and standards for the compounds used. P450 metabolism studies using human microsomes were also performed in CPAC directed by Dr. David Jones.

[3] = P450 metabolism analysis using human microsomes; type: in vitro ADME; settings: human
Experimental: as §1

[4] = tested on: human microsomes; test: P450 metabolism analysis using human microsomes; type: in vitro ADME; settings: vs E3330
Experimental: as §1

[5] = tested on: sensory neuronal cultures; test: Neuronal cell viability (trypan blue exclusion); type: cell-based; settings: for effect on cisplatin-induced cell death: 20 μM for 48 hours prior to and throughout the cisplatin treatment (24 hours)
Experimental: (§2) Primary cultures of sensory neurons were harvested and maintained as previously described (Vasko et al., 2005). Briefly, adult male Sprague-Dawley rats (150-175 g; Harlan, Indianapolis, Ind.) were euthanized by CO2 asphyxiation and dorsal root ganglia (DRG) dissected from all spinal levels, transferred to into a collagenase solution (1 mg/ml), incubated for 1 hour at 37° C., then dissociated by mechanical agitation. Approximately 30,000 cells or 60,000 cells were plated into each well of 12-well or 6-well culture plates, respectively. All culture dishes were precoated with poly-D-lysine and laminin. Cells were maintained in F-12 media supplemented with 10% horse serum, 2 mM glutamine, 100 μg/ml Normocin™, 50 μg/ml penicillin, 50 μg/ml streptomycin, 50 μM 5-fluoro-2′-deoxyuridine (Invitrogen), 150 μM uridine, and 30 ng/ml of NGF in 3% CO2 at 37° C. Growth medium was changed every other day. Experiments were performed after cells were maintained in culture for 12-14 days.
Sensory neuronal culture trypan blue exclusion analysis was performed as previously described (Vasko et al., 2011). Cells were detached by adding a 0.05% trypsin-EDTA solution and media to each well. An equal volume of 0.4% (w/v) trypan blue in PBS was added to the cell suspension and the numbers of living cells (i.e., those that exclude the dye) were counted under a phase contrast microscope using a hemacytometer. Percent survival was calculated as the percent of live cells divided by the total cell number (including dead and live cells).

[6] = target: T1, APE1 (Homo sapiens, UniProt P27695); test: AP endonuclease DNA repair assay; type: biochemical; settings: APX2009 in the nanomolar range
Experimental: Inhibition or enhancement of APE1 DNA repair endonuclease activity was performed as previously described (Bapat et al., 2010). The APE1 repair activity assay was performed in a plate assay using two annealed oligonucleotides (5′-6-FAM-GCCCCC*[…]-3′ (SEQ ID NO:3) and 3′-Q-[…]-5′ (SEQ ID NO:4)) containing a quencher on one strand and a fluorescent 6-FAM label with tetrahydrofuran as an AP site mimic. Oligo cleavage at the AP mimic site results in 6-FAM release and detection. The fluorescence was read at five, one-minute intervals using a Tecan Ultra plate reader (Chemical Genomics Core, Indiana University School of Medicine). The rate of the reaction was used to determine the change in APE1 repair activity as compared to the vehicle control.

[7] = tested on: sensory neurons in culture; type: cell-based, rat; settings: for effect on cisplatin-induced reduction in capsaicin-evoked CGRP release: 72 hour treatment, 10 μM cisplatin
Experimental: as §2
For release experiments, cell cultures were washed with HEPES buffer consisting of (in mM) 25 HEPES, 135 NaCl, 3.5 KCl, 2.5 CaCl2, 1 MgCl2, 3.3 D-glucose, and 0.1% bovine serum albumin, pH 7.4 and maintained at 37° C. They then were incubated for successive 10-minute intervals with 0.4 ml of HEPES buffer alone (basal release), with buffer containing 30 nM capsaicin, then with buffer alone (to assess return to basal release). After each incubation, the buffer was removed and the amount of immunoreactive calcitonin-gene related peptide (CGRP) in each sample was measured using radioimmunoassay (RIA) as previously described (Chen et al., 1996). At the end of the release protocol, CGRP is extracted from the cultures and total content measured using RIA.

[8] = tested on: sensory neuronal cultures; test: phospho-H2AX immunoblotting in sensory neuronal cultures (Example 3); type: cell-based, rat; settings: for effect on cisplatin-induced pH2AX levels (DNA damage): 20 μM for 48 hours prior to and throughout exposure to 10 μM cisplatin
Experimental: as §2
Immunoblotting was performed as previously described (Kelley et al., 2014). Briefly, cells were lysed in RIPA buffer (Santa Cruz Biotechnology; Santa Cruz, Calif., USA) and protein was quantified using the Lowey assay. Proteins were separated by electrophoresis on a 4-12% SDS-polyacrylamide gel. The gel was transferred to a PVDF membrane and incubated overnight at 4° C. in Tris-buffered saline containing 0.1% Tween-20 (TBST) and 5% nonfat dry milk while gently agitating. Mouse monoclonal antihuman Ape1 antibodies (1:500), mouse monoclonal anti-phospho H2AX antibodies (1:1000), or (3-Actin monoclonal antibody (1:1000) were added to the blocking solution and incubated overnight at room temperature while gently agitating. Antibody binding was detected following appropriate secondary antibody methods using chemiluminescence. The density of the bands was measured using QUALITYONE® software from Bio-Rad (Hercules, Calif.) and data expressed as density normalized to actin.

[9] = tested on: Pa03C patient-derived PDAC cells; test: Tumor and CAF 3D co-cultures, tumor cells; type: cell-based, human; settings: tumor alone or co-cultured with CAFs, 12 days in culture, vs vehicle control
From the text: (§3) Patient-derived tumor cells and CAF19 cells were a kind gift from Dr. Anirban Maitra (The Johns Hopkins University M.D. Anderson Cancer Center) (Jones et al., 2008). All cell lines were authenticated via STR analysis (IDEXX BioResearch) and checked routinely for mycoplasma contamination. Ultra low attachment 96-well plates (Corning Inc., Life Sciences) were used to generate 3-dimensional tumor spheroids in the presence and absence of CAFs, as described previously (Sempere et al., 2011; Arpin, 2015). TdTomato-labeled PDAC cells and EGFP-labeled CAFs are resuspended in colorless DMEM media containing 3% Reduced Growth Factor Matrigel (BD Biosciences) and 5% FBS at a cell ratio of 1:4 (tumor:CAF) and fed on days 4 and 8 following plating. Both cell populations are quantitated for intensity and area via Thermo ArrayScan at day 12 of co-culture.

[10] = tested on: CAF19 cells; test: Tumor and CAF 3D co-cultures, CAFs; type: cell-based, human; settings: co-culture with tumor cells, 12 days in culture
From the text: as §3

[11] = target: T1, APE1; test: redox APE1 electrophoretic mobility shift assay (EMSA); type: biochemical; design: Purified APE1 was reduced with 1.0 mM DTT for 10 minutes; settings: read-out: redox inhibition IC50
Experimental: EMSAs were performed as described (Luo et al., 2012). Purified APE1 was reduced with 1.0 mM DTT for 10 minutes and diluted to a final concentration of 0.006 mM with 0.02 mM DTT in PBS. Reduced APE1 was added to EMSA reaction buffer (10 mM Tris (pH 7.5), 50 mM NaCl, 1 mM MgCl2, 1 mM EDTA, 5% [vol/vol] glycerol) with […] 0.007 mM protein mixture (1:1) of purified truncated c-Jun and c-Fos proteins containing DNA-binding domain and leucine zipper and incubated for 30 minutes at room temperature. The EMSA assay was performed as previously described (Luo et al., 2008; Nyland et al., 2010; Kelley et al., 2011; Luo et al., 2012).

[12] = tested on: APE1; test: APE1 expression (immunoblotting) after siRNA; type: cell-based, rat; settings: 100 nM siRNA
Experimental: Small interfering RNAs to APE1 (APE1siRNA) and scrambled siRNA (SCsiRNA) controls were used to decrease APE1 protein expression in sensory neuronal cell cultures and as controls, respectively, as described previously (Vasko et al., 2005, Jiang et al., 2008a). On day 3 in culture, the growth media was replaced with 0.5 ml of Opti-MEM 1 media containing 100 nM of APE1siRNA (5′-[…]-3′ (SEQ ID NO:1)) or SCsiRNA (5′-[…]-3′(SEQ ID NO:2)); (Vasko et al., 2005)) and 10 μl of the transfecting reagent, Neuroporter. On the next day, 0.5 ml of the growth media without antibiotics was added to each well, and after an additional 24 hours the media containing siRNA was replaced with normal growth media.
Tissues or cells were harvested, lysed in RIPA buffer (Santa Cruz Biotechnology; Santa Cruz, Calif., USA), sonicated, and cleared of cellular debris by centrifuging at 4000 RPM for 2 minutes. Protein was quantified using Lowry assay, and electrophoresed in a 12% SDS-polyacrylamide gel. […] Antibody binding was detected following appropriate secondary antibody methods using chemiluminescence. The density of the bands was measured using Quantity One software from Bio-Rad (Hercules, Calif.) and data expressed as density normalized to vinculin.

T1 sequence (P27695 whole entry, species assumed): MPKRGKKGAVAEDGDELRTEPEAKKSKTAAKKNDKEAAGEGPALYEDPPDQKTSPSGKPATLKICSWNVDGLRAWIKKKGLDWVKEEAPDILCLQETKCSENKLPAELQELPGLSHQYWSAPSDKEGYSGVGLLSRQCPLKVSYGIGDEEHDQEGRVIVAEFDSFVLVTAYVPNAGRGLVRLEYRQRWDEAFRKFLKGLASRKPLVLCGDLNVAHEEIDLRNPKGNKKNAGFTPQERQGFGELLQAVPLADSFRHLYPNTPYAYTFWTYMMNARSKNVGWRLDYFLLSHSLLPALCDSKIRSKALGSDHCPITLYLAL

## CCC/C(=C\C1=C(OC)C(=O)c2ccccc2C1=O)C(=O)N(CC)CC [APX2009, (2E)-2-[(3-methoxy-1,4-dioxo-1,4-dihydronaphthalen-2-yl)methylidene]-N,N-diethylpentanamide]
[1]
  pIC50: 5.15
[2]
  half-life: 25.8 h
  half-life increase compared to E3330: ~7 fold
[3]
  half-life: 2.88 h
[4]
  half-life increase, P450 metabolism analysis: 8.7 fold
[5]
  effect on cisplatin-induced cell death: blocked
[5]; 10 or 20 μM, 72-hour treatment, oxaliplatin 24 hours
  protection from oxaliplatin-induced cell killing: protected the sensory neuronal cultures from cell killing
[5]; 24 hours, E3330 10, 20 or 40 μM, APX2009 various concentrations
  cell death / cell viability, drug alone: did not result in a significant reduction in cell viability
[6]
  APE1 repair (endonuclease) activity: stimulation of APE1 repair activity
[7]; 10 μM
  effect on cisplatin-induced reduction in capsaicin-evoked CGRP release: did not prevent the cisplatin-induced reduction in release
[7]; 48 hours prior to and throughout exposure to oxaliplatin for 24 hours
  effect on oxaliplatin-induced decrease in CGRP release: prevented the oxaliplatin-induced decrease in CGRP release
[7]; 72 hours, E3330 20 μM, APX2009 10 or 20 μM, compared to untreated cells
  basal (resting) release or release of CGRP stimulated by 30 nM capsaicin, drug alone: no significant change
[8]
  effect on cisplatin-induced pH2AX levels (DNA damage): significantly reduced the levels of pH2AX
[8]; 20 μM, 24 and 48 hr treatments of 30 μM oxaliplatin
  phosphorylation of H2AX after oxaliplatin: significantly reduced the phosphorylation of H2AX
[9]
  tumor intensity and area in 3D spheroids: statistical differences were observed for the tumor alone or tumor co-cultured with CAFs
[10]
  CAF intensity and area in 3D spheroids: not significantly affected
[11]
  pIC50: 6.00

## APE1siRNA: Small interfering RNA to APE1, 5′-GUCUGGUAAGACUGGAGUACC-3′ (SEQ ID NO:1) (chemistry not given here)
[12]
  APE1 expression relative to wildtype expression: ~20%

## CCC/C(=C\C1=C(OC)C(=O)c2ccccc2C1=O)C(=O)N(C)C [APX2007, (2E)-2-[(3-methoxy-1,4-dioxo-1,4-dihydronapthalen-2-yl)methylidene]-N,N-dimethylpentanamide]
[1]
  pIC50: 5.15
[5]
  effect on cisplatin-induced cell death: did not attenuate the cisplatin-induced cell death
[5]; 40 μM, 24 hours
  cell viability, drug alone: significant reduction in cell viability
[5]; 20 or 40 μM, 72 hours (data not shown)
  cell death, drug alone: significant increase in cell death
[6]
  APE1 repair (endonuclease) activity: no effect
[7]; 10 μM
  effect on cisplatin-induced reduction in capsaicin-evoked CGRP release: did not prevent the cisplatin-induced reduction in release
[7]; 10 μM, 72 hours
  CGRP release, drug alone: did not affect CGRP release
[7]; 20 μM, 72 hours
  capsaicin-stimulated release of CGRP, drug alone: significant increase in capsaicin-stimulated release
[8]
  effect on cisplatin-induced pH2AX levels (DNA damage): neither APX2007 nor APX2032 (20 μM) altered the ability of cisplatin to produce DNA damage
[11]
  pIC50: 5.70

— patent US11351130B2, “Prevention and reversal of inflammation induced DNA damage” (Indiana University Research and Technology Corporation, priority 2017, dated 2022)
